Columns and labels:
Assay in all cases: β-arrestin based GPCR screen (PathHunter / GPCRmax), antagonist mode
168 GPCRs [1] = target: 168 GPCRs (Homo sapiens, UniProt O43603)
168 GPCRs [2] = target: 168 GPCRs (Homo sapiens, UniProt O95977)
168 GPCRs [3] = target: 168 GPCRs (Homo sapiens, UniProt P21452)
168 GPCRs [4] = target: 168 GPCRs (Homo sapiens, UniProt P21730); settings: C5AR1, Antagonist
168 GPCRs [5] = target: 168 GPCRs (Homo sapiens, UniProt P22888); settings: LHCGR
168 GPCRs [6] = target: 168 GPCRs (Homo sapiens, UniProt P25103)
Sequence of 168 GPCRs (Homo sapiens, UniProt P25103) (P25103 whole entry): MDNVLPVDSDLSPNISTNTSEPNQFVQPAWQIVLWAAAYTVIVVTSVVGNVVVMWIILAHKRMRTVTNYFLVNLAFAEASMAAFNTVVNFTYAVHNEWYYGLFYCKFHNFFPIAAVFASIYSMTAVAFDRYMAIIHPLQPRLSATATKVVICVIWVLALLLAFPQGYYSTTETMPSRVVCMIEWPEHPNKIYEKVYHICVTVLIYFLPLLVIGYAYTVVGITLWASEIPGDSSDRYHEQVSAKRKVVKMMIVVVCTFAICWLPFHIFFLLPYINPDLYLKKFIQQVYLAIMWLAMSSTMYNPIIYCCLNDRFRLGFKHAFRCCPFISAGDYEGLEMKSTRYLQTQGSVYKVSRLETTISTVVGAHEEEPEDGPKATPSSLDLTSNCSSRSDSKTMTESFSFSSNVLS

168 GPCRs [7] = target: 168 GPCRs (Homo sapiens, UniProt P29371)
Sequence of 168 GPCRs (Homo sapiens, UniProt P29371) (P29371 whole entry): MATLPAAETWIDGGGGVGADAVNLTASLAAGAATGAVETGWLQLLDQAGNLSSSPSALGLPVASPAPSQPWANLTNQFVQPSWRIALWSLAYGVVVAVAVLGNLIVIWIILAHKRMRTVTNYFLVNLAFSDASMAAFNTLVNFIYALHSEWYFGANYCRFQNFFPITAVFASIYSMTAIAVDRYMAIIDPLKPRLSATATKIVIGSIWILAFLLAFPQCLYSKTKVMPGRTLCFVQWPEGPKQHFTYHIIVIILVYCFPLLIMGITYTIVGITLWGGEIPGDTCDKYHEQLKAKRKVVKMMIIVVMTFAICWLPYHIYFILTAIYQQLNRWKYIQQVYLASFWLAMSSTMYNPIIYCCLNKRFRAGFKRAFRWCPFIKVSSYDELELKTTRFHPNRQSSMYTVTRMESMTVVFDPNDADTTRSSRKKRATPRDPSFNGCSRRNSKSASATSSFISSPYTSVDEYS

168 GPCRs [8] = target: 168 GPCRs (Homo sapiens, UniProt P30518); settings: AVPR2, Antagonist
Sequence of 168 GPCRs (Homo sapiens, UniProt P30518) (P30518 whole entry): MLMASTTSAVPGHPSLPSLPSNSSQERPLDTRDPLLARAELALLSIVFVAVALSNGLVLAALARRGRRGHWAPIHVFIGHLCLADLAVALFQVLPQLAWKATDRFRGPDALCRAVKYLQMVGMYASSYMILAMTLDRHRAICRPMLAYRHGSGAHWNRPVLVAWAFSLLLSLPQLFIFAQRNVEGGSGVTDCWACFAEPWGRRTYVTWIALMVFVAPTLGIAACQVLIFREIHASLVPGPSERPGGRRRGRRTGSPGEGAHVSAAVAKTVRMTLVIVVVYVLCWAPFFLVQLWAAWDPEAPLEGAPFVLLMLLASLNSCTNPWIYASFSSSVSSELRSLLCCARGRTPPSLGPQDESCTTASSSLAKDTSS

168 GPCRs [9] = target: 168 GPCRs (Homo sapiens, UniProt P30550); settings: GRPR
Sequence of 168 GPCRs (Homo sapiens, UniProt P30550) (P30550 whole entry): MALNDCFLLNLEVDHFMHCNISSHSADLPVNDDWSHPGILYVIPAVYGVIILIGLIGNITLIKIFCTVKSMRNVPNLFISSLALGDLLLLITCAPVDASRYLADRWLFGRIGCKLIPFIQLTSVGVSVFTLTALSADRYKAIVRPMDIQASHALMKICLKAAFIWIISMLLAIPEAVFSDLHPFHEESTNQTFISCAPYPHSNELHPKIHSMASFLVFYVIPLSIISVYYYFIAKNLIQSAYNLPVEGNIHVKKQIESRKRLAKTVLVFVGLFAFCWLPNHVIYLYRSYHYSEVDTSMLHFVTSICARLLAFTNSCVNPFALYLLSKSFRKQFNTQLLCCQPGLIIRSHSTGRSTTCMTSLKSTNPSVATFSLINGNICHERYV

168 GPCRs [10] = target: 168 GPCRs (Homo sapiens, UniProt P32249)
168 GPCRs [11] = target: 168 GPCRs (Homo sapiens, UniProt P35367)
Sequence of 168 GPCRs (Homo sapiens, UniProt P35367) (P35367 whole entry): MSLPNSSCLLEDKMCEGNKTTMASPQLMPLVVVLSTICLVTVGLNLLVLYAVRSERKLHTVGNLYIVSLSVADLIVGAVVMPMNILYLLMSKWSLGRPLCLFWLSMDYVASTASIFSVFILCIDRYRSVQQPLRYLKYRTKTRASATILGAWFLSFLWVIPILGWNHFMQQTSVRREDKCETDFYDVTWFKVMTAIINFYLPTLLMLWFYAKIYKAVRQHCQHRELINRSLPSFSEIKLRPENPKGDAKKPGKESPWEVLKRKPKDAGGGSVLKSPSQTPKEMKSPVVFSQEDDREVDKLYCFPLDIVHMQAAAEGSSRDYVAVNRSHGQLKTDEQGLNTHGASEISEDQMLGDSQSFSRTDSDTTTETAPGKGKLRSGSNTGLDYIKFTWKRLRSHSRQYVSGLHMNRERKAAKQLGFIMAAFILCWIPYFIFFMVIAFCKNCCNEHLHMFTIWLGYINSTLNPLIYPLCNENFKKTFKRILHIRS

168 GPCRs [12] = target: 168 GPCRs (Homo sapiens, UniProt P35408)
168 GPCRs [13] = target: 168 GPCRs (Homo sapiens, UniProt P35414); settings: AGTRL1, Antagonist
Sequence of 168 GPCRs (Homo sapiens, UniProt P35414) (P35414 whole entry): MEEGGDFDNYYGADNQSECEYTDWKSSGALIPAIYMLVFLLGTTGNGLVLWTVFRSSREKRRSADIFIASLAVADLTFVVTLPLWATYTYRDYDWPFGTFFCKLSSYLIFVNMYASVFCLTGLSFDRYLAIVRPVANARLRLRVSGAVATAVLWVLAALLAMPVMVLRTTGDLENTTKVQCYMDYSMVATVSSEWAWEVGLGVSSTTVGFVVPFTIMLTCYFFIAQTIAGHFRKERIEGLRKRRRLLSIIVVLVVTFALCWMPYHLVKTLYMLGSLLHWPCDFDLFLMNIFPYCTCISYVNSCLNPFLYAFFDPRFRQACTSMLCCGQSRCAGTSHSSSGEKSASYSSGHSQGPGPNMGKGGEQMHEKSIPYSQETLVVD

168 GPCRs [14] = target: 168 GPCRs (Homo sapiens, UniProt P43220); settings: GLP1R
168 GPCRs [15] = target: 168 GPCRs (Homo sapiens, UniProt P46092); settings: CCR10, Antagonist
168 GPCRs [16] = target: 168 GPCRs (Homo sapiens, UniProt P47211)
Sequence of 168 GPCRs (Homo sapiens, UniProt P47211) (P47211 whole entry): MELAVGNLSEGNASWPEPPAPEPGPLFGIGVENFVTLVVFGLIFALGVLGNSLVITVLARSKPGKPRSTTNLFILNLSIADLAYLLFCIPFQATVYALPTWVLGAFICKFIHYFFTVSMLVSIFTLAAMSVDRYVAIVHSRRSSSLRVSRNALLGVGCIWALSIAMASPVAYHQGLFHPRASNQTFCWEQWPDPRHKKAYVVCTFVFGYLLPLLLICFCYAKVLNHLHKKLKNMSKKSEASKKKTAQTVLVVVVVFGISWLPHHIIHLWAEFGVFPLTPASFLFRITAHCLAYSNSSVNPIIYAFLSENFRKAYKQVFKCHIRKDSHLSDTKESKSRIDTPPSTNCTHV

168 GPCRs [17] = target: 168 GPCRs (Homo sapiens, UniProt P49019); settings: GPR109B
Sequence of 168 GPCRs (Homo sapiens, UniProt P49019) (P49019 whole entry): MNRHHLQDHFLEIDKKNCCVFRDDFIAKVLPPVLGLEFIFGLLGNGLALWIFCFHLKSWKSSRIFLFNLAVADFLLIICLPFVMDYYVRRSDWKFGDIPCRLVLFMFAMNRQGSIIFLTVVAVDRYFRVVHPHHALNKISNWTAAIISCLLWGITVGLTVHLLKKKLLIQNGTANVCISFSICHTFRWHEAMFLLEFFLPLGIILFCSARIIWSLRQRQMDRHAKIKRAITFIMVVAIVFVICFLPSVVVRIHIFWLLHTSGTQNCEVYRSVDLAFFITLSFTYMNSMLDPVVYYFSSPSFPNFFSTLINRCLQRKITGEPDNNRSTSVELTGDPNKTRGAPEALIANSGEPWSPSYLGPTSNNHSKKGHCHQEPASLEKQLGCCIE

168 GPCRs [18] = target: 168 GPCRs (Homo sapiens, UniProt P49238)
168 GPCRs [19] = target: 168 GPCRs (Homo sapiens, UniProt P51677); settings: CCR3, Antagonist
168 GPCRs [20] = target: 168 GPCRs (Homo sapiens, UniProt P51686); settings: CCR9, Antagonist
Sequence of 168 GPCRs (Homo sapiens, UniProt P51686) (P51686 whole entry): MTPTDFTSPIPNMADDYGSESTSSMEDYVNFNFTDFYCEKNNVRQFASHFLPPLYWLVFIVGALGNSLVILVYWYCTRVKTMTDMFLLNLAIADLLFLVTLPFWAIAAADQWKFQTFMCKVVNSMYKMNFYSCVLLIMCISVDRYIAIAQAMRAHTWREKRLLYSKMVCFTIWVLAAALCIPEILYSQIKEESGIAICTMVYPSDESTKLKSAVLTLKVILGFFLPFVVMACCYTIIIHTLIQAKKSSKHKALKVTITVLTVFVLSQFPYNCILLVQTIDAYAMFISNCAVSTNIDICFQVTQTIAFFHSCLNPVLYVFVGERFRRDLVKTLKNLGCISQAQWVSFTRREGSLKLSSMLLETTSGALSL

168 GPCRs [21] = target: 168 GPCRs (Homo sapiens, UniProt Q8TDV5)
168 GPCRs [22] = target: 168 GPCRs (Homo sapiens, UniProt Q96LB2)
Sequence of 168 GPCRs (Homo sapiens, UniProt Q96LB2) (Q96LB2 whole entry): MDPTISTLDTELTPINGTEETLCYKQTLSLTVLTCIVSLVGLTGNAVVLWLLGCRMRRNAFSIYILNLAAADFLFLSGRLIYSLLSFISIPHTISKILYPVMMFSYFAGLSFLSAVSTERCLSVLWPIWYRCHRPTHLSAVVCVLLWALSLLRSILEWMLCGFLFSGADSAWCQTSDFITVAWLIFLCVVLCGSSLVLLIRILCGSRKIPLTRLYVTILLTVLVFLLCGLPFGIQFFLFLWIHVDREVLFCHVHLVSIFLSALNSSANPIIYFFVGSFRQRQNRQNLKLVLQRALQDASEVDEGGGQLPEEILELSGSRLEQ

168 GPCRs [23] = target: 168 GPCRs (Homo sapiens, UniProt Q9GZQ6)

Sequence of 168 GPCRs (Homo sapiens, UniProt P21730) (P21730 whole entry): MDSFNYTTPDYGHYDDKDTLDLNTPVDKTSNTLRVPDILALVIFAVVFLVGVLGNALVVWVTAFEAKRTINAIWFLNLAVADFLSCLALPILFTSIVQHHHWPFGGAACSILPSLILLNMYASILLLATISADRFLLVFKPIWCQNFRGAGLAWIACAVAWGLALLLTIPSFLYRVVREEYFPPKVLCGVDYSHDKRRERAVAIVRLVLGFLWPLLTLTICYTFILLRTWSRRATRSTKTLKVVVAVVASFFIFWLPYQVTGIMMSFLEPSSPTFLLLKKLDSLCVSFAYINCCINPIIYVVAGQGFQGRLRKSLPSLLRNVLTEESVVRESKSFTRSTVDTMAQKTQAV
Sequence of 168 GPCRs (Homo sapiens, UniProt O95977) (O95977 whole entry): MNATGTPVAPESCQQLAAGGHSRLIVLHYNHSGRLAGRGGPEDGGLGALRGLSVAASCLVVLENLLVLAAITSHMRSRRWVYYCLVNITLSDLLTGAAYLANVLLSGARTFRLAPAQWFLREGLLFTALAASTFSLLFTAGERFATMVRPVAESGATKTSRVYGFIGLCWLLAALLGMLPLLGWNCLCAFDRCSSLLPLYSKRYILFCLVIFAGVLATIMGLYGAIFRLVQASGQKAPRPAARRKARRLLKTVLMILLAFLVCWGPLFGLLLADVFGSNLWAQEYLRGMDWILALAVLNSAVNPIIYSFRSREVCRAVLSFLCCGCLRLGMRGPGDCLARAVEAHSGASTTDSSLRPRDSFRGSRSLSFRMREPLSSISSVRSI

CNC(C)C(=O)c1ccc2c(c1)OCO2 (stereo not shown) [methylone, 3,4-methylenedioxy-N-methylcathinone] was tested, and the activity at 10 µM (168 GPCRs [1]; GALR2, Antagonist mode, 10 uM) was 1.5%, the activity at 1 µM (168 GPCRs [1]; GALR2, Antagonist, 1 uM) was 7% and the activity at 10 µM (168 GPCRs [2]; EDG6, Antagonist mode, 10 uM) was 7.8%. The activity at 1 µM (168 GPCRs [2]; EDG6, Antagonist, 1 uM) was 13.2%, the activity at 10 µM (168 GPCRs [3]; TACR2, Antagonist mode, 10 uM) was 9.1% and the activity at 1 µM (168 GPCRs [3]; TACR2, Antagonist, 1 uM) was 10%. The activity at 1 µM (168 GPCRs [4]; 1 uM) was 8.9%, the activity at 10 µM (168 GPCRs [4]; 10 uM) was 5% and the activity at 10 µM (168 GPCRs [5]; Antagonist mode, 10 uM) was 11.2%. For the same compound, the activity at 1 µM (168 GPCRs [5]; Antagonist, 1 uM) was 13.8%, the activity at 10 µM (168 GPCRs [6]; TACR1, Antagonist mode, 10 uM) was 8.9% and the activity at 1 µM (168 GPCRs [6]; TACR1, Antagonist, 1 uM) was 15.2%. For the same compound, the activity at 10 µM (168 GPCRs [7]; TACR3, Antagonist mode, 10 uM) was -14.3%, the activity at 1 µM (168 GPCRs [7]; TACR3, Antagonist, 1 uM) was -3.9% and the activity at 1 µM (168 GPCRs [8]; 1 uM) was -2.7%. It also gave an activity at 10 µM (168 GPCRs [8]; 10 uM) of -14.8%, an activity at 10 µM (168 GPCRs [9]; Antagonist mode, 10 uM) of -1.4% and an activity at 1 µM (168 GPCRs [9]; Antagonist, 1 uM) of 0.7%. The activity at 10 µM (168 GPCRs [10]; EBI2, Antagonist mode, 10 uM) was 2.6%, the activity at 1 µM (168 GPCRs [10]; EBI2, Antagonist, 1 uM) was 0.6% and the activity at 10 µM (168 GPCRs [11]; HRH1, Antagonist mode, 10 uM) was 2.2%. For the same compound, the activity at 1 µM (168 GPCRs [11]; HRH1, Antagonist, 1 uM) was -18%, the activity at 10 µM (168 GPCRs [12]; PTGER4, Antagonist mode, 10 uM) was 4.3% and the activity at 1 µM (168 GPCRs [12]; PTGER4, Antagonist, 1 uM) was 10.1%. The activity at 1 µM (168 GPCRs [13]; 1 uM) was -3.3%, the activity at 10 µM (168 GPCRs [13]; 10 uM) was -4.1% and the activity at 10 µM (168 GPCRs [14]; Antagonist mode, 10 uM) was -0.9%. It also gave an activity at 1 µM (168 GPCRs [14]; Antagonist, 1 uM) of 3.4%, an activity at 1 µM (168 GPCRs [15]; 1 uM) of 5.4% and an activity at 10 µM (168 GPCRs [15]; 10 uM) of 2.6%. The activity at 10 µM (168 GPCRs [16]; GALR1, Antagonist mode, 10 uM) was 6.8%, the activity at 1 µM (168 GPCRs [16]; GALR1, Antagonist, 1 uM) was 7.1% and the activity at 10 µM (168 GPCRs [17]; Antagonist mode, 10 uM) was -20.2%. It also gave an activity at 1 µM (168 GPCRs [17]; Antagonist, 1 uM) of -16.5%, an activity at 10 µM (168 GPCRs [18]; CX3CR1, Antagonist mode, 10 uM) of -6.1% and an activity at 1 µM (168 GPCRs [18]; CX3CR1, Antagonist, 1 uM) of -0.2%. The activity at 1 µM (168 GPCRs [19]; 1 uM) was -11.8%, the activity at 10 µM (168 GPCRs [19]; 10 uM) was -4% and the activity at 1 µM (168 GPCRs [20]; 1 uM) was 2.9%. For the same compound, the activity at 10 µM (168 GPCRs [20]; 10 uM) was -9.9%, the activity at 10 µM (168 GPCRs [21]; GPR119, Antagonist mode, 10 uM) was -8.8% and the activity at 1 µM (168 GPCRs [21]; GPR119, Antagonist, 1 uM) was 17.1%. It also gave an activity at 10 µM (168 GPCRs [22]; MRGPRX1, Antagonist mode, 10 uM) of -10.2%, an activity at 1 µM (168 GPCRs [22]; MRGPRX1, Antagonist, 1 uM) of -6.5% and an activity at 10 µM (168 GPCRs [23]; NPFFR1, Antagonist mode, 10 uM) of 27.1%. For the same compound, the activity at 1 µM (168 GPCRs [23]; NPFFR1, Antagonist, 1 uM) was 32%.

From patent US12343326B2, “Psychoactive medicines and their use for treating psychiatric and neurological conditions and disorders” (Transcend Therapeutics, Inc., priority 2021, dated 2025)
